Laboratory results as given in article doi:10.1101/2024.06.07.597859v1 (biorxiv, 2024).

Biological target: T1, PfTSEN1 (Plasmodium falciparum, UniProt A0A144A1E9)
T1 sequence (A0A144A1E9 1-220): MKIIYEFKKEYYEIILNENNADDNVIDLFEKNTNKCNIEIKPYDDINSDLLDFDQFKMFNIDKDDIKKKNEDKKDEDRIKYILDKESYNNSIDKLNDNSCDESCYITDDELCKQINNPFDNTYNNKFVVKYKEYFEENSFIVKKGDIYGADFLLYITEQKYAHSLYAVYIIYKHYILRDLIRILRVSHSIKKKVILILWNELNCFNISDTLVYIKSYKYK
Assay: microscale thermophoresis
Format: binding

**Q.** With `NCCCn1ccc2c1C(=O)c1cccnc1C2=O` [TSENi, 1-(3-aminopropyl)-1H-pyrrolo[2,3-f]quinoline-4,9-dione] as the compound, how does the Kd read?
**A.** Its Kd is 0.945 µM.
